A short description of data set [1]: Free fraction in plasma (equilibrium dialysis). The following applies: human EDTA plasma, pH 7.4 buffer, 37 °C. In kind it is in vitro ADME. The method, then:
Example 14 Free fraction in plasma
Free fraction in human plasma has been determined by equilibrium dialysis between human EDTA plasma (Bioreclamation) and 0.1 M NaH2PO4 buffer adjusted to pH 7.4. The experiment was performed in a 96 well dialysis plate (HTD96b, htdialysis). Plasma was frozen at -80 °C immediately after purchasing. Membranes (HTD 96a/b Dialysis Membrane Strips, MWCO 12-14 K, htdialysis) were soaked for one hour in pure PBS and kept in PBS/EtOH 80:20 (v/v) in a closed bottle at 5 °C until use.
Plasma was thawed in cold water and centrifuged 5 min at 3000 rpm before use to move potential clots. The plasma supernatant was transferred to a new tube. Test compounds were diluted to 0.2 mM in DMSO. Plasma was spiked 1:100 with test compound (final concentration 2 µM).
The dialysis plate was assembled with membranes according to the instructions whereupon 150 µL phosphate buffer was loaded to the lower side of the wells immediately after assembling and spiked plasma was loaded to the upper side of the wells. The plate was sealed with sealing tape and incubated at 37 °C with gently shaking in 5 hours.
After 5 hours incubation the plate was removed from the incubator. The sealing tape was carefully removed and 70 µL from the buffer wells ("lower" side) were transferred to 96 well plates for analysis.
Samples were analysed by LC-MS-MS on a Sciex API 4000 (Applied Biosystems). […]
Background: In equilibrium dialysis only unbound substance equilibrates across the membrane.

Data set [2] addresses T1, human NK3 receptor (Homo sapiens, UniProt P29371).
T1 construct: expressed in transfected cells; membranes prepared from them
T1 sequence (P29371 1-465): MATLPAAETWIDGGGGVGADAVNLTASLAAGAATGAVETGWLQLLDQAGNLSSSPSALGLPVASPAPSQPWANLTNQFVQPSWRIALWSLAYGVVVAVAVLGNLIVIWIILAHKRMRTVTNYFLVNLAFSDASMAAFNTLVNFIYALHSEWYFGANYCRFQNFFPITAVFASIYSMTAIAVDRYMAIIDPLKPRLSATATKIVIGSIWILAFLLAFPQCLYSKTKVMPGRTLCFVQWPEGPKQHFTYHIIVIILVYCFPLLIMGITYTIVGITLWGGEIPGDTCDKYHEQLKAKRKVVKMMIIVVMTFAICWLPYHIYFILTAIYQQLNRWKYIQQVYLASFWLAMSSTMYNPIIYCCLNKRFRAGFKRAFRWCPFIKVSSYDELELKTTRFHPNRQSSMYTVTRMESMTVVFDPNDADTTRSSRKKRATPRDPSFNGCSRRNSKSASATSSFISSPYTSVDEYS
Briefly: NK3 receptor binding assay (SPA-based competition binding with 125I-NKB). As to conditions: read-out: Affinity (Ki/nM). The method, then:
Example 12 NK3 receptor binding assay
(§1) Membranepreparation: BHK cells stably expressing the human NK3 receptor were seeded in harvesting plates in Dulbeccos MEM containing GlutaMax (862 mg/l), 1mM sodium pyruvate, 10% fetal calf serum, 1% Pen/Strep, 1 mg/ml G418 and were grown at 34 °C in a humidified atmosphere containing 10% CO2. To increase receptor expression, 10 µM trichotatin A was added to the media 24 hours before harvest of the cells at a confluency of app 90%. Prior to the harvesting, the cells were washed twice with PBS without Mg^2+ og Ca^2+ and subsequently scrapped of in 10 ml PBS pr harvesting plate. The cells suspension were centrifuged at 1500xG in three minutes before resuspension in 15 mM Tris-HCl pH 7,5 buffer containing 2 mM MgCl2; 0,3 mM EDTA and 1 mM EGTA (buffer A). The cell suspention was homogenised and subsequently centrifuged at 40000xG in 30 minutes. The membrane-pellet was resuspended in buffer A containing 250 mM sucrose, alliquoted and stored at ― 80 °C.
Affinity assay description: The assay was performed as a SPA-based competition-binding assay in a 50 mM Tris pH 7.4 assay buffer containing 120 mM NaCl, 3 mM MnCl2, 40 µg/ml bacitracin, 2 µg/ml Chymostatin, 1 µg/ml Phosphoramidon and 4 µg/ml Leupeptin. […] The assay plate was subsequently under agitation incubated for 90 min at RT. The plate was centrifugated 10 minutes at 500xG and counted in a topcounter 5 minuttes pr well.
The total binding, which comprised less than 5 % of added radioligand, was defined using assay buffer whereas the non-specific binding was defined in the presence of 1 µM osanetant. The non-specific binding constituted app 5 % of the total binding.

Data set [3] concerns the target T1, human NK3 receptor. Kind of data set: NK3 receptor efficacy and potency assay (FLIPR Calcium 4). It is filed as cell-based. The following applies: read-out: Potency (cIC50/nM). The method, then: Example 13 NK3 receptor efficacy and potency assay
BHK cells stably expressing the human NK3 receptor were seeded in 100 µl media in black walled clear-base 96-wells plates (Costar) aiming at a confluency of 95-100% at the day of assay. The assay was performed according to the FLIPR Calcium 4 Assay kit (Molecular Devices). At the day of the assay, the media was removed and the cells were washed once with the HBSS buffer (Hanks BSS buffer, pH 7,4 containing 20 mM Hepes) before 100 µl of a solution of the calcium assay reagent dissolved in the HBSS buffer containing 2,5 mM probinicid was added to the cells. The plates were incubated for 60 min at 34°C, 10% CO2 before use in the FLIPR for examination of fluorescence.
For efficacy and potency evaluation of compounds, these were diluted in HBSS buffer prior to test. For test of agonist activity, 25 µl of the diluted compound solution was added and the plate was analyzed for 5 minutes in the FLIPR. For test of antagonist activity, the plate was incubated for another 45 minutes before addition of 25 µl of the EC85 concentration ofNKB (app. 4 nM) as described above. The plates were subsequently analyzed for 5 minutes before the assay was terminated. The maximal increase in fluorescence over background following each ligand addition was determined.

The target of data set [4] is T1, human NK3 receptor. Kind of data set: NK3 receptor binding assay (SPA-based competition binding with 125I-NKB). The following applies: read-out: KD of 125I-NKB; three independent saturation assays, duplicate determinations. The method, then:
as §1, with “Example 12 NK3 receptor binding assay Membranepreparation:” for “Membranepreparation:”, “°C. Affinity assay description: The assay was performed as a SPA-based competition-binding assay in a 50 mM Tris pH 7.4 assay buffer containing 120 mM NaCl, 3 mM MnCl2, 40 µg/ml bacitracin, 2 µg/ml Chymostatin, 1 µg/ml Phosphoramidon and 4 µg/ml Leupeptin. […] The plate was centrifugated 10 minutes at 500xG and counted in a topcounter 5 minuttes pr well. […]” for “°C.”

Broadly, the fraction unbound is free concentration divided by total concentration. The low end stands for extensive binding, the high end for weak binding. Broadly, the pKd is the negative decadic logarithm of the Kd, by convention in mol/L.

pKd: −log10 of the molar value. Starred links: 1 amine or outer side, 2 acyl side, 3 side chain; linkers in the order of their positions; H or OH if unused. Non-standard residues stand in square brackets, D forms with d. Residues, ends and D or L forms follow the SMILES beside them. X1 = O=C([C@H](Cc1cnc(I)[nH]1)N[*:1])[*:2]
Throughout, for Affinity (Ki/nM): competition with app 0.02 nM 125I-NKB.

`CCNn1c(C)c(C(=O)N[C@@H](CC)c2ccccc2)c2ccccc2c1=O` [Example 2a, 2-Ethylamino-3-methyl-1-oxo-1,2-dihydro-isoquinoline-4-carboxylic acid ((S)-1-phenylpropyl)-amide] yielded a fraction unbound at 5 h, 2 µM in data set [1] of 0.162.
Take `CCNn1c(C)c(C(=O)N[C@@H](CC)c2ccccc2)c2cccc(Cl)c2c1=O` [Example 2h, 8-Chloro-2-ethylamino-3-methyl-1-oxo-1,2-dihydro-isoquinoline-4-carboxylic acid ((S)-1-phenyl-propyl)-amide]: the Ki at human NK3 receptor [2] is 31 nM. For the same compound, the IC50 at human NK3 receptor [3] was 36 nM. Besides, in data set [1], the fraction unbound at 5 h, 2 µM came to 0.062.
As to `CCNn1c(C)c(C(=O)N[C@H](c2ccccc2)C2CC2)c2cccc(F)c2c1=O` [Example 2i, 2-Ethylamino-8-fluoro-3-methyl-1-oxo-1,2-dihydro-isoquinoline-4-carboxylic acid ((S)-cyclopropyl-phenyl-methyl)-amide], the Ki at human NK3 receptor [2] was 27 nM. The compound also returned an unbound share (fraction unbound) at 5 h, 2 µM in data set [1] of 0.134.
The compound `CCCNn1c(C)c(C(=O)N[C@H](c2ccccc2)C2CC2)c2cccc(F)c2c1=O` [Example 2k, 8-Fluoro-3-methyl-1-oxo-2-propylamino-1,2-dihydro-isoquinoline-4-corboxylic acid ((S)-cyclopropyl-phenyl-methyl)-amide] had a fraction unbound at 5 h, 2 µM in data set [1] of 0.124.
Take `CCNn1c(C)c(C(=O)N[C@H](c2cccc(F)c2)C2CCC2)c2cccc(F)c2c1=O` [Example 2s, 2-Ethylamino-8-fluoro-3-methyl-1-oxo-1,2-dihydro-isoquinoline-4-carboxylic acid [(S)-cyclobutyl-(3-fluoro-phenyl)-methyl]-amide]: on human NK3 receptor [2], the Ki is 4.7 nM. Further, the free fraction (fraction unbound) at 5 h, 2 µM in data set [1] came to 0.06.
As to `CCNn1c(C)c(C(=O)N[C@@H](CC)c2ccccc2)c2cccc(F)c2c1=O` [Example 2t, 2-Ethylamino-8-fluoro-3-methyl-1-oxo-1,2-dihydro-isoquinoline-4-carboxylic acid ((S)-1-phenyl-propyl)-amide], the Ki at human NK3 receptor [2] is 43 nM. The same compound registered a fraction unbound at 5 h, 2 µM in data set [1] of 0.146.
The matching figures for `CCNn1c(C)c(C(=O)N[C@H](c2ccc(F)cc2)C2CC2)c2cccc(F)c2c1=O` [Example 2w, 2-Ethylamino-8-fluoro-3-methyl-1-oxo-1,2-dihydro-isoquinoline-4-carboxylic acid [(S)-cyclopropyl-(4-fluoro-phenyl)-methyl]-amide]: 28 nM and 0.132.
On to `Cc1c(C(=O)N[C@H](c2cccc(F)c2)C2CC2)c2cccc(F)c2c(=O)n1[C@@H]1CCN(C)C1` [Example 7i, 8-Fluoro-3-methyl-2-((R)-1-methyl-pyrrolidin-3-yl)-1-oxo-1,2-dihydro-isoquinoline-4-carboxylic acid [(S)-cyclopropyl-(3-fluoro-phenyl)-methyl]-amide], for which the Ki at human NK3 receptor [2] is 90 nM. In addition, the IC50 at human NK3 receptor [3] was 660 nM.
In turn, `CCCNn1c(C)c(C(=O)N[C@H](c2ccc(F)cc2)C2CCC2)c2cccc(F)c2c1=O` [Example 8c] gave a fraction unbound at 5 h, 2 µM in data set [1] of 0.046.
Same read-out and setting: the result for `Cc1c(C(=O)N[C@H](c2cccc(F)c2)C2CCC2)c2cccc(F)c2c(=O)n1NCCCF` [Example 10a, 8-Fluoro-2-(3-fluoro-propylamino)-3-methyl-1-oxo-1,2-dihydro-isoqunoline-4-carboxylic acid [(S)-cyclobutyl-(3-fluoro-phenyl)-methyl]-amide] reads 0.089; that for `CC[C@H](NC(=O)c1c(O)c(-c2ccccc2)nc2ccccc12)c1ccccc1` [Talnetant, talnetant, reference compound], 0.006.
Turning to `CSCC[C@H](NC(=O)[C@H](CC(C)C)NC(=O)CNC(=O)[C@@H](NC(=O)[C@H](Cc1ccccc1)NC(=O)[C@H](Cc1ccccc1)NC(=O)[C@H](CC(=O)O)NC(=O)[C@H](Cc1cnc(I)[nH]1)NC(=O)[C@H](CCSC)NC(=O)[C@@H](N)CC(=O)O)C(C)C)C(N)=O` [^125I-NKB] (H-DM[X1]DFFVGLM-NH2), the pKd on human NK3 receptor [4] was 9.15.

The values above are taken from patent EP2342182B1 (H. Lundbeck A/S, priority 2008, dated 2010).
